In PubChem BioAssay AID1963829 (Molecular Pharmacology Branch, DTP, NCI, 2024):

Tested on: 935938-334-R-J1-PDC complex spheroid viability
Experiment: Anticancer human tumor 935938-334-R-J1-PDC patient-derived small intestine adenocarcinoma cell line growth inhibition [POLQ]
Conditions: for IC50: curve of first compound; for viability, T/C: stronger effect = lower value; active = viability on the fitted dose curve at most 10% of control; inactive = the rest
Outline: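 Patient-derived tumour cells were co-cultured with HUVEC and mesenchymal stem cells as multicellular spheroids at 37 °C. They were treated with POLQ inhibitors (novobiocin, ART-558, RP6685) alone or combined with other agents. Top concentrations were at or near clinical Cmax (otherwise 10 microM; SN-38 at 1 microM), decreasing in half-log steps.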

[1] = second compound 0.0316 µM, first compound 0.0316 µM
[2] = second compound 0.0316 µM, first compound 0.1 µM
[3] = second compound 0.0316 µM, first compound 0.316 µM
[4] = second compound 0.0316 µM, first compound 1 µM
[5] = second compound 0.0316 µM, first compound 3.16 µM
[6] = second compound 0.0316 µM, first compound 10 µM
[7] = second compound 0.1 µM, first compound 0.0316 µM
[8] = second compound 0.1 µM, first compound 0.1 µM
[9] = second compound 0.1 µM, first compound 0.316 µM
[10] = second compound 0.1 µM, first compound 1 µM
[11] = second compound 0.1 µM, first compound 3.16 µM
[12] = second compound 0.1 µM, first compound 10 µM
[13] = second compound 0.316 µM, first compound 0.0316 µM
[14] = second compound 0.316 µM, first compound 0.1 µM
[15] = second compound 0.316 µM, first compound 0.316 µM
[16] = second compound 0.316 µM, first compound 1 µM
[17] = second compound 0.316 µM, first compound 3.16 µM
[18] = second compound 0.316 µM, first compound 10 µM
[19] = second compound 1 µM, first compound 0.0316 µM
[20] = second compound 1 µM, first compound 0.1 µM
[21] = second compound 1 µM, first compound 0.316 µM
[22] = second compound 1 µM, first compound 1 µM
[23] = second compound 1 µM, first compound 3.16 µM
[24] = second compound 1 µM, first compound 10 µM
[25] = second compound 3.16 µM, first compound 0.0316 µM
[26] = second compound 3.16 µM, first compound 0.1 µM
[27] = second compound 3.16 µM, first compound 0.316 µM
[28] = second compound 3.16 µM, first compound 1 µM
[29] = second compound 3.16 µM, first compound 3.16 µM
[30] = second compound 3.16 µM, first compound 10 µM
[31] = second compound 10 µM, first compound 0.0316 µM
[32] = second compound 10 µM, first compound 0.1 µM
[33] = second compound 10 µM, first compound 0.316 µM
[34] = second compound 10 µM, first compound 1 µM
[35] = second compound 10 µM, first compound 3.16 µM
[36] = second compound 10 µM, first compound 10 µM
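Note: spheroids exposed to drugs for seven days before viability read.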
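Throughout, for viability, T/C: 100% = DMSO vehicle control wells.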

COc1cc2cc(C(=O)CCC(=O)O)sc2cc1OC + Nc1ccc(C#CCN(C(=O)Cc2ncc(C(F)(F)F)cc2C(F)(F)F)c2ccc(F)cc2)nn1
> 10 µM: IC50 (second compound 0.0316 µM) | IC50 (second compound 0.1 µM) | IC50 (second compound 0.316 µM) | IC50 (second compound 1 µM) | IC50 (second compound 3.16 µM) | IC50 (second compound 10 µM)
inactive: viability, T/C [1] 102% | viability, T/C [2] 101% | viability, T/C [3] 101% | viability, T/C [4] 93.6% | viability, T/C [5] 87.7% | viability, T/C [6] 84.5% | viability, T/C [7] 99% | viability, T/C [8] 92% | viability, T/C [9] 95.5% | viability, T/C [10] 108% | viability, T/C [11] 81.7% | viability, T/C [12] 87% | viability, T/C [13] 108% | viability, T/C [14] 102% | viability, T/C [15] 89.5% | viability, T/C [16] 106% | viability, T/C [17] 113% | viability, T/C [18] 108% | viability, T/C [19] 89.6% | viability, T/C [20] 114% | viability, T/C [21] 78.4% | viability, T/C [22] 81.7% | viability, T/C [23] 110% | viability, T/C [24] 112% | viability, T/C [25] 108% | viability, T/C [26] 90.9% | viability, T/C [27] 84.1% | viability, T/C [28] 105% | viability, T/C [29] 103% | viability, T/C [30] 81.1% | viability, T/C [31] 101% | viability, T/C [32] 95.8% | viability, T/C [33] 101% | viability, T/C [34] 103% | viability, T/C [35] 82% | viability, T/C [36] 74.5%

CC(C)n1c(=O)n(C)c2cnc3cc(F)c(-c4ccc(OCCCN5CCCCC5)nc4)cc3c21 + Cc1cccc(N(C)C(=O)C2C(O)CCN2c2nc(C)cc(C(F)(F)F)c2C#N)c1
> 10 µM: IC50 (second compound 0.0316 µM) | IC50 (second compound 0.1 µM) | IC50 (second compound 0.316 µM) | IC50 (second compound 1 µM) | IC50 (second compound 3.16 µM) | IC50 (second compound 10 µM)
inactive: viability, T/C [1] 86.8% | viability, T/C [2] 98.4% | viability, T/C [3] 77.5% | viability, T/C [4] 112% | viability, T/C [5] 111% | viability, T/C [6] 125% | viability, T/C [7] 85.9% | viability, T/C [8] 84.7% | viability, T/C [9] 82.8% | viability, T/C [10] 82% | viability, T/C [11] 110% | viability, T/C [12] 88.3% | viability, T/C [13] 97.5% | viability, T/C [14] 94.9% | viability, T/C [15] 100% | viability, T/C [16] 97% | viability, T/C [17] 94.2% | viability, T/C [18] 97.3% | viability, T/C [19] 88% | viability, T/C [20] 103% | viability, T/C [21] 89.1% | viability, T/C [22] 93.5% | viability, T/C [23] 105% | viability, T/C [24] 98.7% | viability, T/C [25] 93.4% | viability, T/C [26] 93.7% | viability, T/C [27] 100% | viability, T/C [28] 98.1% | viability, T/C [29] 112% | viability, T/C [30] 89.5% | viability, T/C [31] 105% | viability, T/C [32] 80.6% | viability, T/C [33] 90.5% | viability, T/C [34] 84.6% | viability, T/C [35] 76.9% | viability, T/C [36] 80.1%
